Columns and labels:
Type in all cases: in vivo
[1] = system: blackgrass (Alopecurus myosuroides); assay: Test A greenhouse herbicide test, postemergence
Procedure, shortened: (§1)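 Seedlings in a loam soil and sand mix received formulated compound postemergence at the one- to two-leaf stage. Greenhouse holding lasts approximately 10 d, then injury is scored visually relative to untreated plants, 0 meaning no effect and 100 complete control.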

[2] = system: galium (catchweed bedstraw, Galium aparine); assay: Test A greenhouse herbicide test, postemergence
Procedure, shortened: as §1

[3] = system: barnyardgrass (Echinochloa crus-galli); assay: Test B flooded paddy test; conditions: 250 g ai/ha, Flood, visual rating on scale of 0 to 100 where 0 is no effect and 100 is complete control, 13 to 15 d after treatment; for pest or weed control at 250 g/ha: Echinochloa crus-galli, 360 h, read-out: Plant response rating, Barnyardgrass
Procedure, shortened: (§2)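 Ratings use a 0-100 visual scale, where 100 is complete control, and compare treated plants with controls after 13 to 15 d of greenhouse growth. Compound went straight into paddy water kept 3 cm over the soil surface, applied to seedlings at the 2-leaf stage.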

[4] = system: ducksalad (Heteranthera limosa); assay: Test B flooded paddy test; conditions: 250 g ai/ha, Flood, visual rating on scale of 0 to 100 where 0 is no effect and 100 is complete control, 13 to 15 d after treatment; for pest or weed control at 250 g/ha: Heteranthera limosa, 360 h, read-out: Plant response rating, Ducksalad
Procedure, shortened: as §2

rice (Oryza sativa) = assay: Test B flooded paddy test; conditions: 250 g ai/ha, Flood, visual rating on scale of 0 to 100 where 0 is no effect and 100 is complete control, 13 to 15 d after treatment; for plant injury at 250 g/ha: Oryza sativa, 360 h, read-out: Plant response rating, Rice
Procedure, shortened: as §2

[5] = system: sedge, umbrella (small-flower umbrella sedge, Cyperus difformis); assay: Test B flooded paddy test; conditions: 250 g ai/ha, Flood, visual rating on scale of 0 to 100 where 0 is no effect and 100 is complete control, 13 to 15 d after treatment; for pest or weed control at 250 g/ha: Cyperus difformis, 360 h, read-out: Plant response rating, Sedge, Umbrella
Procedure, shortened: as §2

[6] = system: chickweed (common chickweed, Stellaria media); assay: Test C greenhouse herbicide test, postemergence
Procedure, shortened: (§3)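 Test chemicals were applied postemergence to greenhouse plants at the 1- to 4-leaf stage (2–18 cm tall) growing in peat/vermiculite medium. After 13–15 d, injury was rated visually against untreated controls on a 0–100 scale (0 = no effect, 100 = complete control).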

[7] = system: oat, wild (wild oat, Avena fatua); assay: Test C greenhouse herbicide test, postemergence
Procedure, shortened: as §3

[8] = system: waterhemp_RES1 (ALS & Triazine resistant common waterhemp, Amaranthus rudis); assay: Test E greenhouse herbicide test, postemergence
Description: (§4) At the same time, plants from these crop and weed species and also waterhemp_RES1, (ALS & Triazine resistant common waterhemp, Amaranthus rudis), and waterhemp_RES2, (ALS & HPPD resistant common waterhemp, Amaranthus rudis) were planted in pots containing Redi-Earth® planting medium (Scotts Company, 14111 Scottslawn Road, Marysville, Ohio 43041) comprising spaghnum peat moss, vermiculite, wetting agent and starter nutrients were treated with postemergence applications of test chemicals formulated in the same manner. Plants ranged in height from 2 to 18 cm for postemergence treatments (1- to 4-leaf stage). Treated plants and controls were maintained in a greenhouse for 14 to 21 d, after which time all species were compared to controls and visually evaluated. Plant response ratings, summarized in Table E, are based on a scale of 0 to 100 where 0 is no effect and 100 is complete control. A dash (-) response means no test result.

[9] = system: waterhemp_RES2 (ALS & HPPD resistant common waterhemp, Amaranthus rudis); assay: Test E greenhouse herbicide test, postemergence
Description: as §4

[10] = 125 g ai/ha, visual rating after approx. 10 d, 0 to 100 scale (0 no effect, 100 complete control)
[11] = 500 g ai/ha, 0 to 100 scale, 0 is no effect, 100 is complete control
[12] = Postemergence, 31 g ai/ha, 0 to 100 scale (0 no effect, 100 complete control)
[13] = Postemergence, 125 g ai/ha, scale 0 to 100, 0 is no effect, 100 is complete control
[14] = Postemergence, 250 g ai/ha, scale 0 to 100, 0 no effect, 100 complete control, 13 to 15 d
[15] = postemergence, 62 g ai/ha, scale 0 to 100, 0 no effect, 100 complete control
[16] = 125 g ai/ha, scale 0 to 100 (0 no effect, 100 complete control)
[17] = 250 g ai/ha, scale 0 to 100 (0 no effect, 100 complete control)
[18] = 125 g ai/ha, 0 to 100 scale where 0 is no effect and 100 is complete control
[19] = 500 g ai/ha, visual rating after approx. 10 d, 0 to 100 scale (0 no effect, 100 complete control)
[20] = 31 g ai/ha, visual, scale 0 no effect to 100 complete control
[21] = 16 g ai/ha, visual, scale 0 no effect to 100 complete control
[22] = 62 g ai/ha, scale 0 to 100 (0 no effect, 100 complete control)
[23] = Postemergence, 31 g ai/ha, scale 0 to 100 (0 no effect, 100 complete control)

SMILES | Blackgrass plant response rating [1, 11] | Galium plant response rating [2, 11] | Plant response rating, Barnyardgrass [3] | Plant response rating, Ducksalad [4] | Plant response rating, Rice (rice (Oryza sativa)) | Plant response rating, Sedge, Umbrella [5] | Chickweed plant response rating [6, 12] | Plant response rating, Chickweed [6, 13] | Plant response rating, Chickweed [6, 14] | Chickweed plant response rating [6, 15] | Oat, Wild plant response rating [7, 12] | Plant response rating, Oat, Wild [7, 13] | Plant response rating, Oat, Wild [7, 14] | Oat, Wild plant response rating [7, 15] | Plant response rating, Waterhemp_RES1 [8, 16] | Plant response rating, Waterhemp_RES1 [8, 17] | Plant response rating, Waterhemp_RES2 [9, 16] | Plant response rating, Waterhemp_RES2 [9, 17] | Plant response rating, Waterhemp_RES1 [8, 20] | Plant response rating, Waterhemp_RES2 [9, 20] | other results
CCC(=O)Oc1c(C)nn(C)c(=O)c1-c1c(C)sc2c(C)cc(C)cc12 [Compound 28] | 90 | 100 | 60 | 80 | 40 | 95 | 95 | 98 | 95 | 95 | 95 | 100 | 100 | 95 | 60 | 80 | 50 | 50 |  |  | Plant response rating, Blackgrass [1, 10]: 90; Plant response rating, Galium [2, 10]: 100
COc1nn(C)c(=O)c(-c2c(C)sc3ccc(Cl)cc23)c1O [Compound 100] | 70 |  | 0 | 0 | 0 | 0 | 90 | 95 | 95 | 90 |  | 85 | 95 | 70 | 85 | 90 | 65 | 70 | 80 | 50 | Plant response rating, Blackgrass [1, 18]: 40; Plant response rating, Galium [2, 18]: 90; Plant response rating, Galium [2, 19]: 100
Cc1ccc2sc(C)c(-c3c(O)c(C)nn(C)c3=O)c2c1 [Compound 1, 4-(2,5-dimethylbenzo[b]thien-3-yl)-5-hydroxy-2,6-dimethyl-3(2H)-pyridazinone] |  |  |  |  |  |  | 95 | 98 | 100 | 95 | 50 | 85 | 100 | 70 | 98 | 100 | 70 | 75 | 80 | 75 | pest or weed control at 250 g/ha [3]: 0%; pest or weed control at 250 g/ha [4]: 20%; plant injury at 250 g/ha (rice (Oryza sativa)): 0%; pest or weed control at 250 g/ha [5]: 0%; Plant response rating, Waterhemp_RES1 [8, 21]: 75; Plant response rating, Waterhemp_RES1 [8, 22]: 90; Plant response rating, Waterhemp_RES2 [9, 21]: 0; Plant response rating, Waterhemp_RES2 [9, 22]: 70
CC(=O)Oc1c(C)nn(C)c(=O)c1-c1c(C)sc2ccc(C)cc12 [Compound 25] | 90 | 100 | 30 | 20 | 0 | 60 | 90 | 100 | 100 | 98 | 60 | 90 | 95 | 70 | 85 | 95 | 70 | 75 | 75 | 70 | Plant response rating, Blackgrass [1, 10]: 60; Plant response rating, Galium [2, 10]: 100; Plant response rating, Waterhemp_RES1 [8, 22]: 80; Plant response rating, Waterhemp_RES2 [9, 22]: 60
CCC(=O)Oc1c(C)nn(C)c(=O)c1-c1c(C)sc2ccc(Cl)cc12 [Compound 109] | 90 |  |  |  |  |  |  | 95 | 100 | 95 |  | 90 | 90 |  | 90 |  | 60 |  | 70 | 50 | Plant response rating, Blackgrass [1, 18]: 80; Plant response rating, Galium [2, 18]: 100; Plant response rating, Galium [2, 19]: 100; Plant response rating, Chickweed [6, 23]: 80; Plant response rating, Oat, Wild [7, 23]: 80; Plant response rating, Waterhemp_RES1 [8, 21]: 60
CC(=O)Oc1c(C)nn(C)c(=O)c1-c1ccc(F)c2ccccc12 [Compound 90] | 90 | 100 |  |  |  |  | 90 | 95 | 98 | 90 |  | 90 | 95 | 70 | 80 |  | 70 |  | 50 | 50 | Plant response rating, Blackgrass [1, 18]: 70; Plant response rating, Galium [2, 18]: 100; Plant response rating, Waterhemp_RES1 [8, 21]: 50; Plant response rating, Waterhemp_RES2 [9, 21]: 50
CC(=O)Oc1c(C)nn(C)c(=O)c1-c1c(C)oc2ccc(C)cc12 [Compound 14, 5-(acetyloxy)-4-(2,5-dimethyl-3-benzofuranyl)-2,6-dimethyl-3(2H)-pyridazinone] |  |  |  |  |  |  | 90 | 90 | 90 | 90 | 10 | 40 | 45 | 30 |  |  |  |  |  |  | pest or weed control at 125 g/ha ([1]; Alopecurus myosuroides, post-emergence, 240 h, 125 g ai/ha, visual rating after approx. 10 d, 0 to 100 scale (0 no effect, 100 complete control), read-out: Plant response rating, Blackgrass): 20%; pest or weed control at 500 g/ha ([1]; Alopecurus myosuroides, post-emergence, 240 h, 500 g ai/ha, 0 to 100 scale, 0 is no effect, 100 is complete control, read-out: Blackgrass plant response rating): 30%; pest or weed control at 125 g/ha ([2]; Galium, post-emergence, 240 h, 125 g ai/ha, visual rating after approx. 10 d, 0 to 100 scale (0 no effect, 100 complete control), read-out: Plant response rating, Galium): 80%; pest or weed control at 500 g/ha ([2]; Galium, post-emergence, 240 h, 500 g ai/ha, 0 to 100 scale, 0 is no effect, 100 is complete control, read-out: Galium plant response rating): 90%; pest or weed control at 250 g/ha [3]: 0%; pest or weed control at 250 g/ha [4]: 0%; plant injury at 250 g/ha (rice (Oryza sativa)): 0%; pest or weed control at 250 g/ha [5]: 0%

Source: patent US10597388B2, “Pyridazinone herbicides” (FMC CORPORATION, priority 2014, dated 2020)
